# Data published in BindingDB's records for doi:10.1016/j.bmcl.2021.128422 (Tohoku Medical and Pharmaceutical University, 2021).
# Biological target: Maltase-glucoamylase (Homo sapiens, UniProt O43451)
# Assay: Inhibition of alpha-glucosidase (unknown origin) using p-nitrophenyl-alpha-D-glucopyranoside as substrate incubated for 50 mins by microplate reader analysis
# Chain of Maltase-glucoamylase (O43451 whole entry): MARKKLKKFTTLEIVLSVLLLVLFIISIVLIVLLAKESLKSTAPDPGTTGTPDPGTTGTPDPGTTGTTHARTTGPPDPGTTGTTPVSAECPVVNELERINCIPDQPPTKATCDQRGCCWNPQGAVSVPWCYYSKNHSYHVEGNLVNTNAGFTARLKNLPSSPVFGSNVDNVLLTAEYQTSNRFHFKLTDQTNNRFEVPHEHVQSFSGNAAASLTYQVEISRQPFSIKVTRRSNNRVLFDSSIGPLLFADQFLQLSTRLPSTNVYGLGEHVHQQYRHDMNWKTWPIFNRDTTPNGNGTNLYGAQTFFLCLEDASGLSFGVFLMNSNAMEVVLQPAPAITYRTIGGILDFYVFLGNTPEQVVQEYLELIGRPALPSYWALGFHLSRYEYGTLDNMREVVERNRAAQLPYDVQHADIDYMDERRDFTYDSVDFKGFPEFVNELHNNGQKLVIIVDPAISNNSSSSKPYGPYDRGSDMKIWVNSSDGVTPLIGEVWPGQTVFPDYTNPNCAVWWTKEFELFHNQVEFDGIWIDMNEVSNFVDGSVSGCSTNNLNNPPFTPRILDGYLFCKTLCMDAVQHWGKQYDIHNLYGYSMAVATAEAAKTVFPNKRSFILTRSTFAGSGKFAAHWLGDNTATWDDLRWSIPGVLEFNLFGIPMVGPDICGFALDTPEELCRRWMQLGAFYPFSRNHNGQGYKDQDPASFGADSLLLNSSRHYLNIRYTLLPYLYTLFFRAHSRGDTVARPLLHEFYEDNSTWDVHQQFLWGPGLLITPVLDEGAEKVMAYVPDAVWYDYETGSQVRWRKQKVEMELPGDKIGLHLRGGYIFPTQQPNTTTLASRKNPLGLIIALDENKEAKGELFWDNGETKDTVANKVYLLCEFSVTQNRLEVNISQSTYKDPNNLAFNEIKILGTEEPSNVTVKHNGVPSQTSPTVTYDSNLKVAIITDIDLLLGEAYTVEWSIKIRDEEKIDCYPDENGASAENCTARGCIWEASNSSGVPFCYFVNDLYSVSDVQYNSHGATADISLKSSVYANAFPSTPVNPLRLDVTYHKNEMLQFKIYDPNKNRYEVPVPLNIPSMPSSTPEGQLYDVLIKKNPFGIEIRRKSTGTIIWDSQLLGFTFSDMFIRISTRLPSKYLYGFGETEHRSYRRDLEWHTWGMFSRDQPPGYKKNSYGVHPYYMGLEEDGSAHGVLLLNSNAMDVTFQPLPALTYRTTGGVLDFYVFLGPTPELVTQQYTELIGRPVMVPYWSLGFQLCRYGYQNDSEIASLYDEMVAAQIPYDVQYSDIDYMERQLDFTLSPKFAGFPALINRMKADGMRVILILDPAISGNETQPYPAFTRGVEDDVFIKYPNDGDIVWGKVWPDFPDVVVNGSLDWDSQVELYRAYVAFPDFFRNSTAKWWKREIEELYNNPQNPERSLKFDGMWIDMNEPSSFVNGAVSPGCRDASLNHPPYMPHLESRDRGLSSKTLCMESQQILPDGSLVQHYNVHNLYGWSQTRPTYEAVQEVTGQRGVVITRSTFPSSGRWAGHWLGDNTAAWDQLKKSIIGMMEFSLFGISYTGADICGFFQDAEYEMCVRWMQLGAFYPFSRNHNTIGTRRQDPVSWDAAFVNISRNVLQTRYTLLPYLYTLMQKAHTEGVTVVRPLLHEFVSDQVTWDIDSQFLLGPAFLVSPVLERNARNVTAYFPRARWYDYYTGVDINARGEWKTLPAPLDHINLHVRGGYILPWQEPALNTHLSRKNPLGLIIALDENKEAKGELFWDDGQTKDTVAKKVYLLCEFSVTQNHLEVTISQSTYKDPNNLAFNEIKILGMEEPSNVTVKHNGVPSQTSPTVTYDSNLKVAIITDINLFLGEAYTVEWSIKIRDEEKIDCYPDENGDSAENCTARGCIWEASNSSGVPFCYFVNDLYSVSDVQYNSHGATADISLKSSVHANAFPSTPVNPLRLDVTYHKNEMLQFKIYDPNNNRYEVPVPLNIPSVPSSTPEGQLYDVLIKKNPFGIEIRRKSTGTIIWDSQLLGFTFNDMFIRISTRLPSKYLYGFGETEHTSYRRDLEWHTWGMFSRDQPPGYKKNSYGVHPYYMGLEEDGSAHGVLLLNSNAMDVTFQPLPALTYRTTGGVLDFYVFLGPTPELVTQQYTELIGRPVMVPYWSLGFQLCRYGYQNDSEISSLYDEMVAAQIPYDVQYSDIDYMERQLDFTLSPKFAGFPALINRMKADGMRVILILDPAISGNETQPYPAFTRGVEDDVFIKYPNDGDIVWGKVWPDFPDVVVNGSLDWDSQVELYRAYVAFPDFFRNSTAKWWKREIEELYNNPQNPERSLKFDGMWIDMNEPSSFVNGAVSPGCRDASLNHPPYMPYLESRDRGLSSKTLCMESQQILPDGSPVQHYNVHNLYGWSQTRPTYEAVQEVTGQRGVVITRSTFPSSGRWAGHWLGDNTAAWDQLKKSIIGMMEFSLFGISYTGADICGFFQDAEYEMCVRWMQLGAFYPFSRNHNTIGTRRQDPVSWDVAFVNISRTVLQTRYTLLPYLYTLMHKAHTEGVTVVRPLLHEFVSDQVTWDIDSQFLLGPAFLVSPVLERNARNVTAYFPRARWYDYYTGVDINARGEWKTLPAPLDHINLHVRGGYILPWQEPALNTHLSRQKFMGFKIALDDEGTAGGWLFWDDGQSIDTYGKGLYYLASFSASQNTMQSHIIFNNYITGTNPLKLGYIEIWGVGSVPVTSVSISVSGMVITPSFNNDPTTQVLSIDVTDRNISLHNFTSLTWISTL
row,SMILES,IC50
1,C=C1C(=O)O[C@@H]2/C=C(\C)CC/C=C(\C)C[C@@H](OC(=O)/C(=C\COC(C)=O)CO)[C@@H]12,> 29 µM
2,C=C1C(=O)O[C@@H]2/C=C(\C)CC/C=C(\C)C[C@@H](OC(=O)/C(=C\C)CO)[C@@H]12,> 29 µM
3,C=C1C(=O)O[C@@H]2/C=C(\C)C[C@H](O)/C=C(\C)C[C@@H](OC(=O)/C(=C\C)COC(C)=O)[C@@H]12,> 25 µM
4,C=C1C(=O)O[C@@H]2/C=C(\C)CC/C=C(\C)C[C@@H](OC(=O)/C(=C/C)CO)[C@@H]12,> 29 µM
5,C=C1C(=O)O[C@@H]2/C=C(\C)CC/C=C(\C)C[C@@H](OC(=O)/C(=C/CO)CO)[C@@H]12,> 28 µM
6,"O=c1c(O)c(-c2ccc(O)c(O)c2)oc2cc(O)cc(O)c12 [2-(3,4-dihydroxyphenyl)-3,5,7-trihydroxy-chromone;hydrate]",10.8 µM

# Further lines, results first:
row,IC50,SMILES
1,> 25 µM,C=C1C(=O)O[C@@H]2/C=C(\C)[C@@H](O)C/C=C(\C)C[C@@H](OC(=O)/C(=C\C)COC(C)=O)[C@@H]12
2,> 25 µM,C=C1C(=O)O[C@@H]2/C=C(\C)CC/C=C(\CO)C[C@@H](OC(=O)/C(C)=C/C)[C@@H]12
3,> 28 µM,C=C1C(=O)O[C@@H]2/C=C(\C)C[C@H](O)/C=C(\C)C[C@@H](OC(=O)/C(=C\C)CO)[C@@H]12
4,> 25 µM,C=C1C(=O)O[C@@H]2/C=C(\C)CC/C=C(\C)C[C@@H](OC(=O)/C(=C/C)COC(C)=O)[C@@H]12
